In PubChem BioAssay AID602296 (Broad Institute, 2012):
Inconclusive results are not listed. The source made the active and inactive calls.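 How the source made its calls: active means fitted activation curve crossing 40% at a concentration no higher than the sample's top valid tested dose; inconclusive means flat fitted curve at 30% to 70% activation, or poor curve fit; inactive means signal decrease, flat curve within 30%, or the rest.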

The molecules below were run on NIH3T3-HGL HSF-1 response element luciferase, 48 h (assay: sustained heat shock response element induction – cell-based, mouse, luciferase, cherry-pick, dose, confirmation (AID 602296);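 further: test compounds applied by themselves with no MG132 co-treatment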).
`Cn1c(Cn2nnc3ccccc32)nnc1SCC(=O)c1ccccc1F` was tested, and the AC40 was 20.6 µM.
In the case of `CCN(CC)CCCNC(=O)CSc1c2c(nc3cc(Cl)ccc13)CCCC2`, the AC40 is reported as 22 µM.
In the case of `O=[N+]([O-])c1cc([N+](=O)[O-])c(Oc2c(F)cccc2F)cc1NN1CCCCC1`, the AC40 is reported as > 26 µM (inactive).
Work on `COc1cccc(CNc2ccc(Br)cn2)c1O` yielded an AC40 of 12.2 µM.
In the case of `COC(=O)Cn1c(=O)c2c(nc3n2CC(C)CN3CCc2ccccc2)n(C)c1=O` (stereo not drawn), the AC40 is reported as > 26 µM (inactive).
With `C=CCN(C(=O)CCC(=O)Nc1cc(C)on1)C(C(=O)NC(C)(C)C)c1cccc(OC)c1OC` (stereo not drawn) the AC40 was > 26 µM (inactive).
`COc1cccc(NC(=S)NC(=O)c2c(Cl)c(C)nn2C)c1` was tested, and the AC40 was 2.51 µM.
With `CC(=O)c1cccc(N(CC(=O)Nc2ccc(F)cc2F)S(C)(=O)=O)c1` the AC40 was 5.46 µM.
`O=C1c2ccccc2C(=O)N1CCC(=O)N1CCCc2ccccc21` was tested, and the AC40 was > 26 µM (inactive).
For `C=CCN(C(=O)CCc1ccccc1OC)c1nc(-c2ccc(S(C)(=O)=O)cc2)cs1`, the AC40 was > 26 µM (inactive).
For `S=C(Nc1ccccc1)Nc1ccc(Cl)cn1`, the AC40 was 21 µM.
For `COc1ccc(S(=O)(=O)N2CCC(C(=O)NCc3cccnc3)CC2)cc1C`, the AC40 was > 26 µM (inactive).
With `Cc1cc2oc3c(c(=O)c2cc1C)C(c1ccc(C(C)C)cc1)N(CCCN1CCOCC1)C3=O` (stereo not drawn) the AC40 was > 26 µM (inactive).
`CSC(=NC#N)N1CCN(c2ccc(Cl)cc2)CC1` was tested, and the AC40 was 25.3 µM.
With `CCC1(c2ccccc2)NC(=O)N(CC(=O)NCc2ccccc2OC)C1=O` (stereo not drawn) the AC40 was > 26 µM (inactive).
With `O=C(c1ccc2c(=O)n(C3CCCC3)c(=S)[nH]c2c1)N1CCc2ccccc21` the AC40 was > 26 µM (inactive).
With `O=C(Cc1cccs1)NCc1ccccc1Br` the AC40 was 1.77 µM.
In the case of `O=c1[nH]n(CC2COC3(CCCCC3)O2)c(=O)c2ccccc12` (stereo not drawn), the AC40 is reported as 5.22 µM.
With `COc1c(Br)cc(Br)cc1C(=O)O` the AC40 was > 26 µM (inactive).
`Cc1cccc(NC(=O)CSc2nnc(-c3ccco3)c(-c3ccco3)n2)c1C` was tested, and the AC40 was > 26 µM (inactive).
`Cc1ccccc1NC(=O)C1CCCN(C(=O)NCc2ccccc2)C1` (stereo not drawn) was tested, and the AC40 was > 26 µM (inactive).
For `Clc1ccc(SCc2csc(N3CCOCC3)n2)cc1`, the AC40 was > 26 µM (inactive).
`O=C(C1CCC(CNS(=O)(=O)c2cccc3nsnc23)CC1)N1CCN(c2ccccn2)CC1` (stereo not drawn) was tested, and the AC40 was > 26 µM (inactive).
For `CCOC(=O)c1c(C)n(-c2ccc(C)cc2)c2c(CC(C)=O)c(Br)c(OC)c(O)c12`, the AC40 was > 26 µM (inactive).
With `Cc1ccc(C(=O)CNc2ccc(Cl)cc2)cc1` the AC40 was > 26 µM (inactive).
With `N#Cc1ccc(OCCN2CCc3ccccc3C2)cc1` the AC40 was 8.01 µM.
`CCOC(=O)c1sc(C)c2c1NC(C)(c1cccc3ccccc13)NC2=O` (stereo not drawn) was tested, and the AC40 was > 26 µM (inactive).
Molecule `COc1ccc(NC(=S)Nc2ccccc2SC)c(OC)c1` has an AC40 of 24.2 µM.
With `CCN(CC)C(=O)CSc1ncnc2sc(C)c(C)c12` the AC40 was > 26 µM (inactive).
For `CCCCOc1ccc(C(=O)N/N=C/c2cn[nH]c2-c2ccc(OC)c(OC)c2)cc1`, the AC40 was > 26 µM (inactive).
With `CCn1c(SCC(=O)c2ccc(Cl)cc2)nnc1-c1ccoc1C` the AC40 was 11.1 µM.
With `CC(C)(C)NC(=O)c1ccc2c(c1)N(CC(=O)N1CCCCC1)C(=O)C(C)(C)O2` the AC40 was > 26 µM (inactive).
`O=c1[nH]c(N2CCN(c3ccccc3)CC2)nc2c1CCC2` was tested, and the AC40 was > 26 µM (inactive).
In the case of `O=C(CSc1nnc(-c2cccs2)o1)N1CCCc2ccccc21`, the AC40 is reported as > 26 µM (inactive).
In the case of `O=C(O)CN1C(=O)/C(=C\c2cc(Br)ccc2OCc2ccc(F)cc2)SC1=S`, the AC40 is reported as > 26 µM (inactive).
In the case of `COCCCNC(=O)CCn1c(=O)c2ccccc2n(CC(=O)Nc2cc(Cl)ccc2C)c1=O`, the AC40 is reported as > 26 µM (inactive).
For `Cc1ccc(-c2nc3ncccn3c2Nc2ccccc2C)o1`, the AC40 was > 26 µM (inactive).
`COc1ccc(N2CCN(c3ncnc4c3cnn4-c3ccc(C)cc3C)CC2)cc1` was tested, and the AC40 was > 26 µM (inactive).
With `Nc1c(-c2ccsc2)cnc2ncnn12` the AC40 was > 26 µM (inactive).
Work on `Fc1cc(NCc2ccccc2)nc(NCc2ccccc2)n1` yielded an AC40 of 9.52 µM.
Molecule `Clc1ncnc2scc(C3COc4ccccc4O3)c12` (stereo not drawn) has an AC40 of 17.7 µM.
With `Cc1cc(C)c2cc(C(=O)N(C)C3CCN(C)CC3)[nH]c2c1` the AC40 was > 26 µM (inactive).
With `COc1ccc(C2C(C(C)=O)=C(O)C(=O)N2c2ccc(C)cc2)cc1` (stereo not drawn) the AC40 was > 26 µM (inactive).
In the case of `Cc1ccc(C(=O)Cn2nc(C(=O)O)c3ccccc3c2=O)cc1C`, the AC40 is reported as > 26 µM (inactive).
`ON=C1c2ccccc2-c2ccccc21` gave an AC40 of 15.8 µM.
In the case of `COc1ccc(/C=C(\NC(=O)c2ccccc2)C(=O)N/N=C/c2sccc2C)cc1`, the AC40 is reported as > 26 µM (inactive).
`Cc1ccc2nc(NCc3ccccc3)c(C=O)c(=O)n2c1` was tested, and the AC40 was 11 µM.
`N#C/C(=C(\O)C(F)(F)F)c1nnc2n1CCCCC2` was tested, and the AC40 was > 26 µM (inactive).
With `CC(C)(C)N(NS(=O)(=O)c1ccc(F)cc1)c1ccccc1` the AC40 was > 26 µM (inactive).
In the case of `S=C(NC1CCCCC1)NC1CC2C=CC1C2` (stereo not drawn), the AC40 is reported as > 26 µM (inactive).
Work on `CCN(CCNC(=O)CN1CCN(Cc2ccc(Cl)cc2)C1=O)c1ccccc1` yielded an AC40 of 20.9 µM.
Molecule `O=c1[nH][nH]c(-c2ccccc2O)c1C(C[N+](=O)[O-])c1ccccc1` (stereo not drawn) has an AC40 of 16.9 µM.
With `CCOC(=O)C1CCCN(C(=O)c2sc3nc(C)nc(N(CC)CC)c3c2C)C1` (stereo not drawn) the AC40 was > 26 µM (inactive).
With `COc1cc(/C=C(/C#N)C(=O)c2c(C)[nH]c3ccccc23)ccc1OCC#N` the AC40 was > 26 µM (inactive).
With `COc1ccc2nc(SC)c(C#N)cc2c1` the AC40 was > 26 µM (inactive).
`CC1(C)CC(=O)C2=C(C1)OC(N)=C(C#N)C2C#Cc1ccccc1` (stereo not drawn) showed an AC40 of 10.4 µM.
With `Cc1noc(NS(=O)(=O)c2ccc(NC(=O)c3oc4ccc(F)cc4c3C)cc2)c1C` the AC40 was > 26 µM (inactive).
In the case of `CC(=O)NC(=O)NC1OC(=O)C(Cl)=C1Cl` (stereo not drawn), the AC40 is reported as > 26 µM (inactive).
For `CCc1nc2c(sc3nc4c(cc32)COC(C)(C)C4)c(=O)n1Cc1ccco1`, the AC40 was > 26 µM (inactive).
In the case of `CC(/C=C/c1cccs1)=C\C(=O)O`, the AC40 is reported as > 26 µM (inactive).
In the case of `Cc1noc2ncnc(Sc3ccc(Br)cc3)c12`, the AC40 is reported as > 26 µM (inactive).
`O=C1c2ccccc2C(=O)N1CC(O)COc1ccc(Br)cc1` (stereo not drawn) was tested, and the AC40 was 13.7 µM.
`Cc1cccc(OCC(=O)Nc2cc(C)ccc2O)c1` was tested, and the AC40 was > 26 µM (inactive).
Work on `N#CC(C#N)=C1C=CC=CN1/C(=C\c1ccccc1)C(=O)c1cccs1` yielded an AC40 of 12.3 µM.
For `COc1ccc(C2C3=C(CCCC3=O)N(CC(=O)O)C3=C2C(=O)CCC3)cc1Cl`, the AC40 was > 26 µM (inactive).
`O=C1c2cccc3cccc(c23)C(=O)N1OS(=O)(=O)c1ccccc1` gave an AC40 of 16 µM.
`COC(=O)[C@@H]1C[C@]2(OC(=O)c3ccccc3)C=CC(=O)C[C@@H]2N1C(=O)OCc1ccccc1` gave an AC40 of 12.4 µM.
For `Cc1ccc(NC(=O)c2cc3c(=O)oc4ccccc4c3s2)nc1`, the AC40 was > 26 µM (inactive).
`Cn1c(CO)cnc1SCC(=O)c1ccc(Cl)cc1` showed an AC40 of 8.6 µM.
`CC1=C(C(=O)N2CCOCC2)C(c2c(C)cc(C)cc2C)NC(=S)N1` (stereo not drawn) was tested, and the AC40 was > 26 µM (inactive).
For `NC(=O)c1nn(-c2ccccc2)nc1NC(=O)CN1CCCCC1`, the AC40 was > 26 µM (inactive).
For `O=C1/C(=C\c2ccc(Br)o2)Cc2ccccc21`, the AC40 was 10.7 µM.
In the case of `Cc1ccc(NC(=O)N2CCCC2C(=O)Nc2c(C)cc(C)cc2C)cc1` (stereo not drawn), the AC40 is reported as > 26 µM (inactive).
For `C=CCOc1ccc(-c2nc3c(c(=O)[nH]c(=O)n3Cc3ccccc3)n2CCCOC)cc1`, the AC40 was > 26 µM (inactive).
Molecule `COC(=O)C(C)N(C(=O)c1ccc(C(=O)c2ccccc2)cc1)c1c(C)cccc1C` (stereo not drawn) has an AC40 of 19.3 µM.
Work on `CCCCc1cc(O)c(CCCC)c(O)c1` yielded an AC40 of 4.58 µM.
With `COc1ccccc1C(=O)CSc1nnc(-c2ccco2)o1` the AC40 was 11.7 µM.
For `CC(=O)N=c1sccn1CC(=O)c1ccc([N+](=O)[O-])cc1`, the AC40 was > 26 µM (inactive).
`CC(=O)Nc1nnc(SCC(=O)c2ccc(F)cc2)s1` showed an AC40 of 17.4 µM.
For `Cc1ccc2cccnc2c1NC(=S)NC(=O)c1ccccc1`, the AC40 was > 26 µM (inactive).
`C/C(Cl)=C/Cc1c(C)[nH]c2ccc(C)cc2c1=O` gave an AC40 of 11.2 µM.
`COC(=O)CC/C(O)=C1/C(=N)CC(C)(C)CC1=O` was tested, and the AC40 was > 12 µM (inactive).
For `c1ccc(SCCOCCN2CCOCC2)cc1`, the AC40 was > 26 µM (inactive).
With `C=CCN1C(=O)C(Cc2ccc(OCC)cc2)SC1=Nc1ccc(C(=O)O)cc1` (stereo not drawn) the AC40 was > 26 µM (inactive).
For `Cc1[nH]n(-c2ccccc2)c(=O)c1C=NCCc1ccccc1`, the AC40 was 9.52 µM.
For `COC(=O)c1cc(OC)c(OC)cc1NC(=S)NC(=O)c1ccco1`, the AC40 was > 26 µM (inactive).
With `O=C(CC12CCC(CC1)C2)NCc1ccc2c(c1)OCO2` the AC40 was > 26 µM (inactive).
`CCCn1c(SCC(=O)c2cc(OC)ccc2OC)nnc1C(C)C` was tested, and the AC40 was > 26 µM (inactive).
With `CNc1nc(SC(C)C(=O)Nc2ccc(Cl)c(Cl)c2)nc(N2CCOCC2)n1` (stereo not drawn) the AC40 was > 26 µM (inactive).
`CC(Oc1ccc(F)cc1Br)c1nc2ccccc2c(=O)[nH]1` (stereo not drawn) was tested, and the AC40 was 17.3 µM.
Work on `Cc1cc(-c2nnc(CCC(=O)N(C)Cc3cccc4ccccc34)o2)no1` yielded an AC40 of 12 µM.
In the case of `COc1ccc(-n2cc(CNCc3cccnc3)c(-c3cccc(F)c3)n2)cc1`, the AC40 is reported as > 26 µM (inactive).
In the case of `CC1(C)CC(=O)C=C(NC2=CC3OC(c4ccccc4)OCC3OC2=O)C1` (stereo not drawn), the AC40 is reported as 13.2 µM.
`CCOC(=O)C1=NN(C(=O)c2ccccc2)C(O)(c2ccc(C)cc2)C1` (stereo not drawn) was tested, and the AC40 was 8.91 µM.
For `Cc1ccc(O)c(CNc2nccs2)c1`, the AC40 was 24.5 µM.
With `O=C(NC(CO)(CO)CO)c1coc(=O)c(Br)c1` the AC40 was > 26 µM (inactive).
In the case of `[O-]/[N+](=C\c1ccc(OC(F)F)cc1)c1ccccc1`, the AC40 is reported as > 26 µM (inactive).
`O=C1CC(N2C(=O)/C(=C/C=C/c3ccccc3)SC2=S)C(=O)N1c1ccccc1` (stereo not drawn) was tested, and the AC40 was > 26 µM (inactive).
With `CCCNC(=O)Nc1ccc(C)cc1C` the AC40 was > 26 µM (inactive).
For `Fc1ccccc1-c1nc2nc3ccccc3nc2n1CC1CCCO1` (stereo not drawn), the AC40 was 21.8 µM.
Work on `CC(C)C(=O)N1CCC(n2nccc2NC(=O)CCOc2ccccc2)CC1` yielded an AC40 of 7.78 µM.
In the case of `Cc1ccc(CNC(=O)CSc2ccsc2[N+](=O)[O-])cc1`, the AC40 is reported as 0.83 µM.
In the case of `CC(CCc1ccccc1)NC(=O)CN1CCc2ccccc2C1` (stereo not drawn), the AC40 is reported as > 26 µM (inactive).
For `O[C@@H]1C2CCCC1[C@]1(O)CCCCC1C2` (stereo partly drawn), the AC40 was > 26 µM (inactive).
`COC(=O)C1CCN(C(=O)COC(=O)c2ccc(OC)c(S(=O)(=O)N3CCCc4ccccc43)c2)CC1` was tested, and the AC40 was 9.15 µM.
In the case of `O=C(CSc1nc2nccnc2c(=O)n1Cc1cccs1)Nc1ccccc1F`, the AC40 is reported as 9.52 µM.
With `COc1ccc(NC(=O)NNC(=O)c2cc3occc3n2C)c(OC)c1` the AC40 was > 26 µM (inactive).
In the case of `C#CC[N+]1(CC#Cc2ccccc2)CCCCC1`, the AC40 is reported as > 26 µM (inactive).
